Calls of active or inactive are those of the source.

EC50, AC50 and IC50 data for two compounds are collected here from ChEMBL document CHEMBL1201862, “PubChem BioAssay data set” (2004).

A short description of assay [1]: DRD fibroblast viability loss – cell-based, non-viral oncogenic, luminescence, dose response (AID 1934). The assay is classed as functional. The following applies: Homo sapiens.
Assay [2] relates to BJ. The assay is described as follows: BJ-TERT-LT-ST fibroblast viability loss – cell-based, RAS-independent, luminescence, dose response (AID 1935).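 Further: BJ fibroblasts immortalized with TERT plus LT and ST oncogenes.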 The assay is classed as functional. The following applies: Homo sapiens.
Assay [3] concerns BJ. The assay is described as follows: growth inhibition of engineered Ras-driven BJ cells – cell-based, alamar blue fluorescence, cherrypicked samples, dose response (AID 2631).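 Further: confirmatory dose-response assay in RAS-dependent BJ fibroblasts engineered with TERT, LT and ST, with cytotoxicity read by fluorescence.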 The assay is classed as functional. The following applies: Homo sapiens.
The target of assay [4] is T1, Insulin-degrading enzyme (Homo sapiens, UniProt P14735). Nature of the assay: recombinant IDE activation, cell-free – biochemical, fluorescence polarization, counter-screen for IDE activator project, dose response (AID 588681). A general note: In fluorescence polarisation assays a small probe gives low polarisation when free and higher when bound to something large.

The subject of another assay is INS1. Nature of the assay: INS-1E survival protection against cytokine death – cell-based, luminescence, retest, dose response (AID 449756).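 Further: cell death triggered by IL-1 beta plus TNF-alpha plus IFN-gamma mixture; protective hits raise ATP signal compared with cytokine alone wells.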 The class given is functional. The following applies: Rattus norvegicus.
Assay [5] can be described thus: Luminescence Cell-Based Dose Response HTS to Identify Inhibitors of 5'UTR Stem-Loop Driven Prion Protein mRNA Translation in H4 Neuroglioblastoma Cells. [Related pubchem assays: 1827 (Project Summary), 1813 (Primary HTS)]. The assay is classed as functional.
Assay [6] has as its system HEK293. Nature of the assay: optical interference in Abeta FP readout, dose response, artefact control for IDE activator project, biochemical, fluorescence polarization (AID 588442). The class given is functional, cell-based. The following applies: Homo sapiens.
The test system of assay [7] is HEK293. Nature of the assay: membrane integrity loss in HEK cells – cell-based, fluorescence, cytotoxicity control for IDE activator project, dose response (AID 588440).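 Further: cytotoxicity by LDH release measuring loss of membrane integrity.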 The class given is functional. The following applies: Homo sapiens.
Assay [8] deals with BJ. The assay is described as follows: BJ-TERT fibroblast viability loss – cell-based, RAS-independent, luminescence, dose response (AID 1933). The assay is classed as functional. The following applies: Homo sapiens.
The target in assay [9] is G-protein coupled receptor 55 (Homo sapiens, UniProt Q9Y2T6). The assay is described as follows: inhibition of LPI-stimulated GPR55 beta-arrestin translocation – imaging, U2OS, beta-arrestin-GFP, LPI agonist, primary screen (AID 2013).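 Further: antagonist potency measured as reduced agonist-driven arrestin aggregation.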 The class given is functional.
Assay [10] deals with T2, Ubiquitin-conjugating enzyme E2 N (Homo sapiens, UniProt P61088).
T2 sequence (P61088 whole entry): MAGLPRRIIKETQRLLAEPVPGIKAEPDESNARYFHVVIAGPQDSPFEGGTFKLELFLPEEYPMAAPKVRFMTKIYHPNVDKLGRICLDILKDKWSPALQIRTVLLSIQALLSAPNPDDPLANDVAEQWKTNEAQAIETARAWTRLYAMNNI
The class given is functional.

The subject of assay [11] is BJ. The assay is described as follows: cells. The class given is functional, cell-based. The following applies: Homo sapiens.
Assay [12] can be described thus: alpha-synuclein stem-loop luciferase translation blockers – H4 neuroglioma cells, luminescence, confirmation (AID 1988). The class given is functional, cell-based.
The nature of assay [13]: luciferase reporter signal suppression in cells – H4 neuroglioma cells, luminescence, dose response (AID 1990). The class given is functional, cell-based. (In general: A reporter such as luciferase makes a cellular process visible.)
The target in assay [14] is T1, Insulin-degrading enzyme. Nature of the assay: cellular IDE activation of Abeta substrate cleavage – fluorescence polarization, HEK cells, dose response (AID 588439). The assay is classed as functional, cell-based.
Assay [15] in a line: A549 cell cytotoxicity, dose response, cytotoxicity control, plate reader, cherry-pick, antagonist series (AID 743412). The class given is functional, cell-based.
Assay [16] can be described thus: HEK-293T viability loss, compound-treated – cell-based, uHTS hits, cytotoxicity control for B/T-cell NF-kB inhibitor project, dose response (AID 489019).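 Further: IC50 reflects cytotoxicity as loss of cell viability.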 The class given is functional.
Assay [17] relates to H4. Nature of the assay: inhibitors of control reporter signal in H4 cells – cell-based, plate reader, dry powder samples, counter-screen for prion reporter project, dose response (AID 540255). The assay is classed as functional. The following applies: Homo sapiens. (In general: Counterscreens check selectivity or assay interference.)
Assay [18] in a line: blockers of HIV-1 envelope-mediated cell-cell fusion – cherry-pick, dose response (AID 652057). The class given is functional, cell-based.
Assay [19] in a line: HIV-1 AD8 envelope cell-cell fusion blockers – cherry-pick, dose response (AID 652062).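 Further: luciferase signal from cell-cell fusion driven by HIV-1 clade B AD8 Env; potency is for inhibitors of fusion seen as a drop in luminescence.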 The assay is classed as functional, cell-based.
Assay [20] concerns H4. The assay is described as follows: Inhibitors of Prion Protein 5' UTR mRNA Measured in Cell-Based System Using Plate Reader - 2078-01_Inhibitor_Dose_DryPowder_Activity. [Related pubchem assays (depositor defined):AID488894]. The assay is classed as functional. The following applies: Homo sapiens.
Assay [21] has as its target T3, Microphthalmia-associated transcription factor (Homo sapiens, UniProt O75030).
T3 sequence (O75030 whole entry): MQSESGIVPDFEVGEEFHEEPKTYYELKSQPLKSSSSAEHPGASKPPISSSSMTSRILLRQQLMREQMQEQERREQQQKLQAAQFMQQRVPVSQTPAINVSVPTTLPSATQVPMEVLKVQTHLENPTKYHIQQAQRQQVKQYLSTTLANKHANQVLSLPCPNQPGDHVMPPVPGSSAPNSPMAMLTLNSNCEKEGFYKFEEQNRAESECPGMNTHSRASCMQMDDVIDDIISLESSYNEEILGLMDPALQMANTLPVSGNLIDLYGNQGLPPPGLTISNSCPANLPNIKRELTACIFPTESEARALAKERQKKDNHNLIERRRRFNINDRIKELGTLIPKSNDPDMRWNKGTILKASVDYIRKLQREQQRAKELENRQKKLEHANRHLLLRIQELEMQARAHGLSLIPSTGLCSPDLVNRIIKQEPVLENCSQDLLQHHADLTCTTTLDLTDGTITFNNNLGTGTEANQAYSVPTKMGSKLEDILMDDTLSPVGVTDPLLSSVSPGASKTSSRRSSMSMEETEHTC
Nature of the assay: reducers of TRPM1 reporter luminescence, concentration series – cell-based, SK-MEL-5, cherry-picked, set 3, MITF inhibitor project, dose response (AID 493073).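 Further: SK-MEL-5 melanoma cells with luciferase driven by the MITF target TRPM1 promoter.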 The assay is classed as functional.

Assay [22] in a line: blockade of melanocortin 4 receptor signaling – cell-based, plate reader, cherry pick, counter-screen for LGR2 antagonist project, dose response (AID 743444).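 Further: transfected HEK 293 cells stimulated with alpha-MSH peptide; potency of inhibitors of the alpha-MSH evoked signal.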 The assay is classed as functional.
A short description of assay [23]: blockers of HIV-1 ZM109 envelope-driven cell-cell fusion – HeLa effector, CEM target cells, luciferase, cherry-pick, dose response (AID 652058).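 Further: luciferase signal from HIV-1 Env mediated cell-cell fusion of effector and target cells.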 The assay is classed as functional, cell-based.
The nature of assay [24]: off-target signal loss in HeLa-CEM21 co-culture – HeLa F-luc CTL cells, cherry-picked, counter-screen for HIV-1 Env fusion inhibitor project, dose response (AID 652040).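 Further: potency for signal decrease marking cytotoxic or nonspecific inhibition.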 The class given is functional, cell-based.
A short description of assay [25]: blockers of bursicon-stimulated LGR2 cAMP reporter – cell-based, HEK293, CRE-luciferase reporter, cherry pick, set 2, dose response (AID 743343).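 Further: transfected cells were stimulated with diluted bursicon conditioned medium after compound addition.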 The assay is classed as functional.
For a further assay, the system named is Jurkat. Nature of the assay: blockers of NF-kB activation in T cells – Jurkat, luciferase reporter, luminescence, B- and T-cell, dose response (AID 489004).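 Further: NF-kB luciferase reporter Jurkat cells stimulated with PMA plus ionomycin.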 The class given is functional, cell-based. The following applies: Homo sapiens.

T1 sequence (P14735 whole entry): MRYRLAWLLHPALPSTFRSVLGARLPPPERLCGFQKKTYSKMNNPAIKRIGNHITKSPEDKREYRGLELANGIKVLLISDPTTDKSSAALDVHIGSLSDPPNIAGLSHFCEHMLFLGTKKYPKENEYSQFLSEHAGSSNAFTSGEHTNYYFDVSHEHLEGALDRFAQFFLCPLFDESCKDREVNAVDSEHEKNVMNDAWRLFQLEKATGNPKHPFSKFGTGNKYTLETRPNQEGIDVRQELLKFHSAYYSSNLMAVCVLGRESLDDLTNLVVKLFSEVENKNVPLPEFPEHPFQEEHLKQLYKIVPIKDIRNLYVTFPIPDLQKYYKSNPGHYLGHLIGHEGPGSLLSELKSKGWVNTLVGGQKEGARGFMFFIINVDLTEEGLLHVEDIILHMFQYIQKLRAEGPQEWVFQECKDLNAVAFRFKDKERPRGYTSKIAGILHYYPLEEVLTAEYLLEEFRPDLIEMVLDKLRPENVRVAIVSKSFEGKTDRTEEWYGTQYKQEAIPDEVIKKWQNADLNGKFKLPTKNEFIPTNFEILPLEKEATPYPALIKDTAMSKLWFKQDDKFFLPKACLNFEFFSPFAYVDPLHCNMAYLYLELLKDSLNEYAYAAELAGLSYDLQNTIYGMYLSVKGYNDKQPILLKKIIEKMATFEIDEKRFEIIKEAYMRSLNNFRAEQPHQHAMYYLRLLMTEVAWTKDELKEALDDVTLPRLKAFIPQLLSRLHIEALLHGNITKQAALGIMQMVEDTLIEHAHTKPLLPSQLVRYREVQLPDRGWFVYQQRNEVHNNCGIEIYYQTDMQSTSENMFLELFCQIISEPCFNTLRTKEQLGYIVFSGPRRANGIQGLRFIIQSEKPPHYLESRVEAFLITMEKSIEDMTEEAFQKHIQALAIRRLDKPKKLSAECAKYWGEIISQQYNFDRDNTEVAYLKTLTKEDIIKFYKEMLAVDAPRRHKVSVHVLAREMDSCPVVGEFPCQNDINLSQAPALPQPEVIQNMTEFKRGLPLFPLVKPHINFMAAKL
Sequence of G-protein coupled receptor 55 (Q9Y2T6 whole entry): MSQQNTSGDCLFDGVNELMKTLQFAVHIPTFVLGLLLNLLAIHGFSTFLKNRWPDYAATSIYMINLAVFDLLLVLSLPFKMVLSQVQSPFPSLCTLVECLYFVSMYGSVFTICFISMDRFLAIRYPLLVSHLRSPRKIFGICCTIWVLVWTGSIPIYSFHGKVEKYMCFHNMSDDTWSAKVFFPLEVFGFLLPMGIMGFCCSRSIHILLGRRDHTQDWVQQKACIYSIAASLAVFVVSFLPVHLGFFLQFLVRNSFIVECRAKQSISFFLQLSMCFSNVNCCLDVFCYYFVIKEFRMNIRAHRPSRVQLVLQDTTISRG

The term EC50 denotes the concentration needed to bring the measured effect to its halfway point. As a reminder, the AC50 is the concentration giving half of the maximal activity seen. As a reminder, the IC50 is the concentration that gives 50% inhibition. As for `COC(=O)C1=C(C)N(Cc2ccccc2)C(NCc2cccc(C(F)(F)F)c2)=N[C@H]1c1cccc(F)c1`, the half-maximal effective concentration (EC50) in [1] was 9.59 µM (inconclusive); in the assay with BJ [2], 4.9 µM (active); with BJ [3], > 133 µM (inconclusive); at Insulin-degrading enzyme [4] it was > 54.7 µM (inactive); in assay [5], 11 µM (active); with HEK293 [6] it was > 54.7 µM (inactive). The half-maximal effective concentration (EC50) in the assay with BJ [8] is 5.26 µM (inconclusive); with BJ [11], > 150 µM (inconclusive); in assay [12], > 120 µM (not active); in assay [13] it was 8.28 µM (active); on Insulin-degrading enzyme [14] it was 9.71 µM (active). The concentration at half-maximal activity (AC50) in the assay with INS1 is 6.83 µM (active). For the same compound, the figures for the IC50 (in the assay with HEK293 [7]; in assay [9]; in assay [10]) were 11.3 µM (inactive), 1.85 µM (active) and > 20 µM (inactive), respectively.

On to `COc1cccc(NC(=O)Nc2cccc(C(=O)O)c2)c1`, for which the AC50 in assay [15] was > 52 µM (inactive); in the assay on H4 [17], 3.95 µM (active); in [18], 1.8 µM (active); in assay [19], 3.29 µM (active); with H4 [20], 0.915 µM (active); in assay [21], 2.37 µM (active). The AC50 in [22] was 2.35 µM (active); in [23], 7.32 µM (active); in assay [24], 2.11 µM (active); in assay [25], 1.56 µM (active). Besides, the values for the IC50 (in [16]; in the assay with Jurkat) were > 80 µM (inactive) and 1.9 µM (active), respectively.
